Data reported in article PMC12669672, “Structural insights into selective and dual antagonism of EP2 and EP4 prostaglandin receptors” (The EMBO Journal, 2025).
Where “and” joins values, the source holds several entries; their conditions need not be identical. Identical values can stand only once. Like-named read-outs stand apart in the source and are kept apart here.

Experiments:
[1] = target: EP4; parameters: method as in Ganesh et al, 2013; conditions: antagonism towards EP4; ref Ganesh et al, 2013; cited from earlier work
[2] = target: T1, constitutively active EP2 S28A (Homo sapiens, UniProt P43116, S28A); experiment: GloSensor cAMP assay, inhibition of constitutive activity; type: cell-based
T1 construct: The full-length EP2 or EP4 was cloned into the pcDNA3.1 vector; FLAG (N); expressed in transfected cells; host or cells: AD293 cells
Outline: (§1)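 Read-out is GloSensor luminescence from AD293 cells co-expressing FLAG-tagged EP2 variant and GloSensor22F biosensor, transfected at a 1:1 plasmid ratio. Cells were plated at 4000 per well in CO2-independent medium containing 2% cAMP reagent, incubated 1 h at 37 °C, then read.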

[3] = target: T2, constitutively active EP2 E23A (Homo sapiens, UniProt P43116, E23A); experiment: as above; type: cell-based
T2 construct: The full-length EP2 or EP4 was cloned into the pcDNA3.1 vector; FLAG (N); expressed in transfected cells; host or cells: AD293 cells
Outline: as §1

[4] = target: T3, constitutively active EP4 I317A (Homo sapiens, UniProt P35408, I317A); experiment: as above; type: cell-based
T3 construct: The full-length EP2 or EP4 was cloned into the pcDNA3.1 vector (Invitrogen), incorporating an N-terminal FLAG tag; expressed in transfected cells; host or cells: AD293

[5] = target: EP2; parameters: method as in Ganesh et al, 2013; conditions: antagonism towards EP2; ref Ganesh et al, 2013; cited from earlier work
[6] = target: T4, EP2 E23A (Homo sapiens, UniProt P43116, E23A); experiment: GloSensor cAMP assay, antagonism of PGE2-induced cAMP; type: cell-based
T4 construct: The full-length EP2 or EP4 was cloned into the pcDNA3.1 vector; FLAG (N); expressed in transfected cells; host or cells: AD293 cells
Outline: as §1

[7] = target: T5, EP4 I317A (Homo sapiens, UniProt P35408, I317A); experiment: as above; type: cell-based; conditions: for cAMP activity (∆pIC50 from EP4 WT): TG6-129, I317A
T5 construct: The full-length EP2 or EP4 was cloned into the pcDNA3.1 vector; FLAG (N); expressed in transfected cells; host or cells: AD293 cells

[8] = target: T6, EP2 S28A (Homo sapiens, UniProt P43116, S28A); experiment: as above; type: cell-based; conditions: for cAMP activity (∆pIC50 from EP2 WT): TG6-129, S28A
T6 construct: The full-length EP2 or EP4 was cloned into the pcDNA3.1 vector; FLAG (N); expressed in transfected cells; host or cells: AD293 cells
Outline: as §1

[9] = no PGE2, pIC50 mutant - pIC50 WT, mean
[10] = 1 h, TG6-129 log([M]) -12, read-out: % cAMP activity (normalized to WT)

T1 sequence (P43116 whole entry S28A): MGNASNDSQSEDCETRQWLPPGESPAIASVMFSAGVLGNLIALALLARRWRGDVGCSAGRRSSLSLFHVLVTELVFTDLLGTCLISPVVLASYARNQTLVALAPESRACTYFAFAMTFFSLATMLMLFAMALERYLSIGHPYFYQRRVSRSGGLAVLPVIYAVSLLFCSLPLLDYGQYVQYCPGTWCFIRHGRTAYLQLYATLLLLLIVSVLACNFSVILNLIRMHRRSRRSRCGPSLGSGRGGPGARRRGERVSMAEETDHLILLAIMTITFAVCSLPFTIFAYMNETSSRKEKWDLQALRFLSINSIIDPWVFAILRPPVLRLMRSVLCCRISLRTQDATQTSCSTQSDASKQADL
T6 sequence (P43116 whole entry S28A): as above
T3 sequence (P35408 whole entry I317A): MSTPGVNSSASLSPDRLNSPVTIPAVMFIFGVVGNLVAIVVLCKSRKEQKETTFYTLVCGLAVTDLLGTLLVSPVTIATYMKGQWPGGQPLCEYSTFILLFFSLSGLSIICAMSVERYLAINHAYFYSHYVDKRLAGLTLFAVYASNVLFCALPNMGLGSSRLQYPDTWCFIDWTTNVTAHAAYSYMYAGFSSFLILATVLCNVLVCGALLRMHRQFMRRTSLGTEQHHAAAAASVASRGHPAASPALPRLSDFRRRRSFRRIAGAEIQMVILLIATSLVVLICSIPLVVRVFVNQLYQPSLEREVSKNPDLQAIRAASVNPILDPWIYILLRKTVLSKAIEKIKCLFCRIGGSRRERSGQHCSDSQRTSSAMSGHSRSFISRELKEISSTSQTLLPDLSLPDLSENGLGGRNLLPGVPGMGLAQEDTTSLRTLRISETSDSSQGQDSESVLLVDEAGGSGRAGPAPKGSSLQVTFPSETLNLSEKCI
T5 sequence (P35408 whole entry I317A): as above
T4 sequence (P43116 whole entry E23A): as the sequence (P43116 whole entry S28A) above, with E23A, A28S counted along it
T2 sequence (P43116 whole entry E23A): as the sequence (P43116 whole entry S28A) above, with E23A, A28S counted along it

In the case of CCc1nnc(NS(=O)(=O)c2ccc(NC(=S)NC(=O)/C=C/c3ccc(F)cc3)cc2)s1 [TG6-129], the Kd [1] is given as 3.9 µM, the IC50 [2] is given as 0.0389 µM and the remaining activity at 10 µM ([2]; 1 h, TG6-129 log([M]) -5, EP2-S28A, read-out: % cAMP activity (normalized to WT)) is given as 8.3%. The remaining activity at 1 µM ([2]; 1 h, TG6-129 log([M]) -6, EP2-S28A, read-out: % cAMP activity (normalized to WT)) was 8.69%, the remaining activity at 0.001 µM ([2]; 1 h, TG6-129 log([M]) -9, EP2-S28A, read-out: % cAMP activity (normalized to WT)) was 255% and the “TG6-129 cAMP activity (∆pIC50 from EP2 WT), Mean” value ([2]; S28A, Mean) was 0.422. For the same compound, the “TG6-129 cAMP activity (∆pIC50 from EP2 WT)” value ([2]; S28A, single experiments 1st-3rd) was 0.401 and 0.405 and 0.460, the ΔpIC50 [2, 9] was 0.42 ± 0.02 and the IC50 [3] was 0.0316 µM. It also gave a remaining activity at 10 µM ([3]; 1 h, TG6-129 log([M]) -5, EP2-E23A, read-out: % cAMP activity (normalized to WT)) of 5.62%, a remaining activity at 1 µM ([3]; 1 h, TG6-129 log([M]) -6, EP2-E23A, read-out: % cAMP activity (normalized to WT)) of 4.15% and a remaining activity at 0.1 µM ([3]; 1 h, TG6-129 log([M]) -7, EP2-E23A, read-out: % cAMP activity (normalized to WT)) of 17.9%. For the same compound, the remaining activity at 0.001 µM ([3]; 1 h, TG6-129 log([M]) -9, EP2-E23A, read-out: % cAMP activity (normalized to WT)) was 93.8%, the remaining activity at 0.0001 µM ([3]; 1 h, TG6-129 log([M]) -10, EP2-E23A, read-out: % cAMP activity (normalized to WT)) was 108% and the remaining activity at 10 pM ([3]; 1 h, TG6-129 log([M]) -11, EP2-E23A, read-out: % cAMP activity (normalized to WT)) was 111%. The remaining activity at 1 pM ([3]; 1 h, TG6-129 log([M]) -12, EP2-E23A, read-out: % cAMP activity (normalized to WT)) was 98%, the “TG6-129 cAMP activity (∆pIC50 from EP2 WT), Mean” value ([3]; E23A, Mean) was 0.363 and the “TG6-129 cAMP activity (∆pIC50 from EP2 WT)” value ([3]; E23A, single experiments 1st-3rd) was 0.381 and 0.341 and 0.367. For the same compound, the ΔpIC50 [3, 9] was 0.36 ± 0.01, the IC50 [4] was 3.55 µM and the remaining activity at 100 µM ([4]; 1 h, TG6-129 log([M]) -4.00, EP4-I317A, read-out: % cAMP activity (normalized to WT)) was 6.11%. It also gave a remaining activity at […] ([4]; 1 h, TG6-129 log([M]) -4.70, EP4-I317A, read-out: % cAMP activity (normalized to WT)) of 11.7%, a remaining activity at […] ([4]; 1 h, TG6-129 log([M]) -5.40, EP4-I317A, read-out: % cAMP activity (normalized to WT)) of 33.6% and a remaining activity at […] ([4]; 1 h, TG6-129 log([M]) -6.10, EP4-I317A, read-out: % cAMP activity (normalized to WT)) of 68.9%. The remaining activity at 0.1585 µM ([4]; 1 h, TG6-129 log([M]) -6.80, EP4-I317A, read-out: % cAMP activity (normalized to WT)) was 80.8%, the remaining activity at 0.03236 µM ([4]; 1 h, TG6-129 log([M]) -7.49, EP4-I317A, read-out: % cAMP activity (normalized to WT)) was 80.3% and the remaining activity at 0.006457 µM ([4]; 1 h, TG6-129 log([M]) -8.19, EP4-I317A, read-out: % cAMP activity (normalized to WT)) was 83%. The remaining activity at 0.001288 µM ([4]; 1 h, TG6-129 log([M]) -8.89, EP4-I317A, read-out: % cAMP activity (normalized to WT)) was 79.7%, the “TG6-129 cAMP activity (∆pIC50 from EP4 WT), Mean” value ([4]; I317A, Mean) was 0.256 and the ΔpIC50 [4, 9] was 0.26 ± 0.11. For the same compound, the Kd [5] was 0.0088 µM, the IC50 [6] was 0.0204 µM and the remaining activity at 1 pM [6, 10] was 74.1%. For the same compound, the “cAMP activity (∆pIC50 from EP2 WT)” value ([6]; TG6-129, E23A, Mean) was 0.563, the IC50 [7] was 10.7 µM and the remaining activity at 100 µM ([7]; 1 h, TG6-129 log([M]) -4.00, read-out: % cAMP activity (normalized to WT)) was 16.3%. The remaining activity at […] ([7]; 1 h, TG6-129 log([M]) -4.70, read-out: % cAMP activity (normalized to WT)) was 19.5%, the remaining activity at […] ([7]; 1 h, TG6-129 log([M]) -5.40, read-out: % cAMP activity (normalized to WT)) was 47.7% and the remaining activity at […] ([7]; 1 h, TG6-129 log([M]) -6.10, read-out: % cAMP activity (normalized to WT)) was 54.4%. For the same compound, the remaining activity at 0.1585 µM ([7]; 1 h, TG6-129 log([M]) -6.80, read-out: % cAMP activity (normalized to WT)) was 59.7%, the remaining activity at 0.03236 µM ([7]; 1 h, TG6-129 log([M]) -7.49, read-out: % cAMP activity (normalized to WT)) was 57.3% and the remaining activity at 0.006457 µM ([7]; 1 h, TG6-129 log([M]) -8.19, read-out: % cAMP activity (normalized to WT)) was 60.6%. For the same compound, the remaining activity at 0.001288 µM ([7]; 1 h, TG6-129 log([M]) -8.89, read-out: % cAMP activity (normalized to WT)) was 53.5%, the “cAMP activity (∆pIC50 from EP4 WT)” value ([7]; Mean) was 0.074 and the “cAMP activity (∆pIC50 from EP4 WT)” value ([7]; single experiments 1st-3rd) was 0.047 and -0.037 and 0.211. For the same compound, the IC50 [8] was 0.0363 µM, the remaining activity at 10 pM ([8]; 1 h, TG6-129 log([M]) -11, read-out: % cAMP activity (normalized to WT)) was 109% and the remaining activity at 1 pM [8, 10] was 106%. The “cAMP activity (∆pIC50 from EP2 WT)” value ([8]; Mean) was 0.282 and the “cAMP activity (∆pIC50 from EP2 WT)” value ([8]; single experiments 1st-3rd) was 0.159 and 0.319 and 0.367.
